One block for each compound: values may come before it.
Key:
MDR2−/− mice = assay: MDR2−/− mouse model of sclerosing cholangitis; type: in vivo
Protocol: Methods: 30-day-old female MDR2−/− mice (FVB background) were treated daily for 14 days by orogastric gavage with either vehicle control (Kolliphor and CMC), 100 mg/kg/day bezafibrate (pan-PPAR agonist), 100 mg/kg/day fenofibrate (PPARα agonist), 10 mg/kg seladelpar (PPARδ agonist), 0.008% SC-435 (non-absorbable IBAT inhibitor) admixed to chow, or a combination of SC-435 and PPAR agonists.

physchem = settings: water
Text: Since pediatric patients are the target patient population for the proposed cholestatic disease, an oral solution formulation was selected due to its flexibility for dose adjustment based on patient's body weight and the preference for this type of formulation in young children.

[1] = Solubility of MRX drug substance in water and commercially available vehicles, visual observation; type: physicochemical; settings: Water; 0.02 mg/mL
Protocol: For early pediatric clinical studies, the desired maralixibat solution concentration was in the range of 0.02 to 20 mg/mL (concentration based on maralixibat chloride). Initial formulation studies were conducted to determine the solubility and stability of MRX drug substance in three liquid oral dosing vehicles: water, Pedialyte® (an oral rehydration preparation), and Ora-Sweet® SF (a sugar-free, alcohol-free syrup vehicle for oral preparations). Using these three vehicles, samples were produced with the MRX drug substance at three different concentrations (0.02 mg/mL, 2.0 mg/mL, and 4.0 mg/mL concentrations based on maralixibat chloride). A vortex mixer was used to disperse the drug within the liquid vehicle; drug dissolution status was then visually checked and recorded as in Table 4.

[2] = Maralixibat open label study in PFIC (LUM001-501): pruritus and concomitant antipruritic medication; type: in vivo, human
Text: In an open label study to evaluate efficacy and long term safety of maralixibat (LUM001) in the treatment of Cholestatic Liver Disease in patients with Progressive Familial Intrahepatic Cholestasis (PFIC) (Study LUM001-501), participants were not allowed to make any changes to their antipruritic therapy during the 13-week treatment period. No new medications used to treat pruritus were to be added during the 13-week treatment period. Therefore, participants had to be on stable antipruritic medication doses (except for weight-based dose adjustments) during the 13-week treatment period. In the long-term exposure period, changes in antipruritic medications were allowed.

[3] = Maralixibat clinical studies in ALGS (LUM001-304, LUM001-303, LUM001-305): pruritus and concomitant antipruritic medication; type: in vivo, human
Text: In Study LUM001-304, participants were not allowed to make any changes to their antipruritic therapy up to Week 22. In Studies LUM001-301 and LUM001-302, no changes to the antipruritic comedications were allowed throughout the period of the primary analysis up to Week 13. Therefore, across all studies, participants had to be on stable antipruritic medication doses (except for weight-based dose adjustments) throughout the randomized controlled periods. […] Participants in LUM001-302 received either 140 μg/kg/day or 280 μg/kg/day of maralixibat (as maralixibat chloride). The long-term LUM001-303 dosing was 280 μg/kg QD and 280 μg/kg BID. The long term LUM001-305 dosing was at 280 μg/kg/day. After these stable-dosing periods in the long-term extension studies, changes in antipruritic medications were allowed. Weight-based dose adjustments in antipruritic medications were anticipated over the course of a 5-year study.

[4] = female MDR2−/− mice, daily for 14 days
[5] = Study LUM001-303, long-term extension, of the 19 participants
[6] = Study LUM001-305, long term extension, of the 34 participants

SMILES: CCCCC1(CCCC)CS(=O)(=O)c2ccc(N(C)C)cc2[C@@H](c2ccc(OCc3ccc(C[N+]45CCN(CC4)CC5)cc3)cc2)[C@H]1O.[Cl-] [SC-435]
serum ALP (MDR2−/− mice; female MDR2−/− mice (FVB background), daily for 14 days): increased
liver to body weight ratio (MDR2−/− mice; [4]): attenuated
retention of BA in the liver (MDR2−/− mice; [4]): significantly reduced
serum BA concentrations (MDR2−/− mice; [4]): decreased
serum TB concentrations (MDR2−/− mice; [4]): reduced
potency in reducing serum total BA and TB levels (MDR2−/− mice; mouse model of SC): more potent than PPAR agonists

solubility (physchem): > 100 mg/mL
Solubility Observations [1]: Dissolved Instantly
SMILES: CCCCC1(CCCC)CS(=O)(=O)c2ccc(N(C)C)cc2[C@@H](c2ccc(OCc3ccc(C[N+]45CCN(CC4)CC5)cc3)cc2)[C@H]1O [maralixibat chloride]
pruritus control after discontinuing one or more antipruritic medications ([2]; 5 exemplary PFIC patients, FIGS. 3A-3E): still maintain control of pruritus
participants with a decrease in dose or discontinuation of antipruritic medications ([2]; Study LUM001-501, N=33): 13 participants
participants with an increase in dose of antipruritic medication ([2]; Study LUM001-501, N=33): 5 participants
pruritus, ItchRO(Obs) scores ([2]; Study LUM001-501, sustained period of follow-up): general improvements in pruritus
pruritus scores ([3]; ALGS studies, long-term follow-up): consistently improved
participants who experienced a decrease in concomitant antipruritic medication [3, 5]: 2 participants
participants who experienced an increase in concomitant antipruritic medication [3, 5]: Five
participants with no or minimal change in concomitant antipruritic medication [3, 5]: 12 participants
pruritus reduction and proportion of participants reducing concomitant antipruritic medication ([3]; Study LUM001-304, 400 μg/kg dose, compared with supporting ALGS studies at lower doses): greatest pruritus reduction and the largest proportion of participants reducing concomitant antipruritic medication
participants who experienced a decrease in concomitant antipruritic medication ([3]; Study LUM001-304, after Week 22, long-term extension, of the 29 participants): 10 participants
participants who experienced a decrease in concomitant antipruritic medication [3, 6]: 10 participants
participants who experienced an increase in concomitant antipruritic medication [3, 6]: Seven
participants with no or minimal change in concomitant antipruritic medication [3, 6]: 17 participants
